Data taken from PubChem BioAssay AID212 (DTP/NCI, 2004).
Several values for one entry are separate records, joined by “and”; a condition that tells them apart may be missing. Identical values can stand only once. Results filed as inconclusive are left out.

Test system: BDF1 mice, colon carcinoma 38 sc, T/C %
Assay: NCI In Vivo Anticancer Drug Screen. Data for tumor model Colon Carcinoma 38 (subcutaneous) in B6D2F1 (BDF1) mice
Outline: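 Compound antitumor activity was assessed in mice carrying transplantable tumors. Survival or tumor size was recorded, and each value is the treated-group measurement divided by that of the vehicle-treated control group.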

[1] = endpoint: median tumor weight (est.), dose: 100.0 mg/kg/injection, schedule: Q07DX002 (ip), vehicle: water, higher = larger tumour
[2] = endpoint: median tumor weight (est.), dose: 200.0 mg/kg/injection, schedule: Q07DX002 (ip), vehicle: water, higher = larger tumour
[3] = endpoint: median tumor weight (est.), dose: 400.0 mg/kg/injection, schedule: Q07DX002 (ip), vehicle: water, higher = larger tumour
[4] = endpoint: median tumor weight (est.), dose: 800.0 mg/kg/injection, schedule: Q07DX002 (ip), vehicle: water, higher = larger tumour
[5] = endpoint: median tumor weight (est.), dose: 50.0 mg/kg/injection, schedule: Q07DX002 (ip), vehicle: Klucel (hydroxypropylcellulose) (HPC), higher = larger tumour
[6] = endpoint: median tumor weight (est.), dose: 100.0 mg/kg/injection, schedule: Q07DX002 (ip), vehicle: Klucel (hydroxypropylcellulose) (HPC), higher = larger tumour

**Q.** What does the source list for `CCCCC(=O)OCC(=O)[C@]1(O)Cc2c(O)c3c(c(O)c2[C@@H](OC2CC(NC(=O)C(F)(F)F)C(O)C(C)O2)C1)C(=O)c1c(OC)cccc1C3=O` (stereo partly specified)?
**A.** T/C (endpoint: median tumor weight (est.), dose: 25.0 mg/kg/injection, schedule: Q07DX002 (ip), vehicle: water, higher = larger tumour): 168 % of control; T/C [1]: 89 % of control; T/C [2]: 106 % of control; T/C [3]: 71 % of control; T/C [4]: 45 % of control

**Q.** Which T/C (endpoint: median survival time, dose: 28.0 mg/kg/injection, schedule: Q07DX003 (sc), vehicle: water, higher = longer survival) does the source give for `COc1cccc2c1C(=O)c1c(O)c3c(c(O)c1C2=O)CC(O)(/C(C)=N/NC(=O)CCC(=O)N/N=C(\C)C1(O)Cc2c(O)c4c(c(O)c2C(OC2CC(N)C(O)C(C)O2)C1)C(=O)c1c(OC)cccc1C4=O)CC3OC1CC(N)C(O)C(C)O1` (stereo unspecified) here?
**A.** 107 % of control

**Q.** What about the T/C (endpoint: median survival time, dose: 73.0 mg/kg/injection, schedule: Q07DX003 (sc), vehicle: water, higher = longer survival) of the same compound?
**A.** 100 % of control

**Q.** And the T/C (endpoint: median survival time, dose: 118.0 mg/kg/injection, schedule: Q07DX003 (sc), vehicle: water, higher = longer survival)?
**A.** 175 % of control

**Q.** And the T/C (endpoint: median tumor weight (est.), dose: 4.0 mg/kg/injection, schedule: Q07DX002 (ip), vehicle: distilled water + Tween-80, higher = larger tumour)?
**A.** 97 % of control

**Q.** And the T/C (endpoint: median tumor weight (est.), dose: 8.0 mg/kg/injection, schedule: Q07DX002 (ip), vehicle: distilled water + Tween-80, higher = larger tumour)?
**A.** 90 % of control

**Q.** What about the T/C (endpoint: median tumor weight (est.), dose: 8.0 mg/kg/injection, schedule: Q07DX002 (ip), vehicle: water, higher = larger tumour) of the same compound?
**A.** 104 % of control

**Q.** What about the T/C (endpoint: median tumor weight (est.), dose: 9.48 mg/kg/injection, schedule: Q07DX002 (ip), vehicle: water, higher = larger tumour) of the same compound?
**A.** 9 % of control

**Q.** What about the T/C (endpoint: median tumor weight (est.), dose: 14.2 mg/kg/injection, schedule: Q07DX002 (ip), vehicle: water, higher = larger tumour) of the same compound?
**A.** 2 % of control

**Q.** What about the T/C (endpoint: median tumor weight (est.), dose: 16.0 mg/kg/injection, schedule: Q07DX002 (ip), vehicle: distilled water + Tween-80, higher = larger tumour) of the same compound?
**A.** 69 % of control

**Q.** What about the T/C (endpoint: median tumor weight (est.), dose: 16.0 mg/kg/injection, schedule: Q07DX002 (ip), vehicle: water, higher = larger tumour) of the same compound?
**A.** 90 % of control

**Q.** What about the T/C (endpoint: median tumor weight (est.), dose: 32.0 mg/kg/injection, schedule: Q07DX002 (ip), vehicle: distilled water + Tween-80, higher = larger tumour) of the same compound?
**A.** 59 % of control

**Q.** And the T/C (endpoint: median tumor weight (est.), dose: 32.0 mg/kg/injection, schedule: Q07DX002 (ip), vehicle: water, higher = larger tumour)?
**A.** 54 % of control

**Q.** And the T/C (endpoint: median tumor weight (est.), dose: 64.0 mg/kg/injection, schedule: Q07DX002 (ip), vehicle: distilled water + Tween-80, higher = larger tumour)?
**A.** 4 % of control

**Q.** `O=C(NO)c1cc(O)c(O)c(O)c1` was tested. Which T/C (endpoint: median tumor weight (est.), dose: 50.0 mg/kg/injection, schedule: Q07DX002 (ip), vehicle: water, higher = larger tumour) did it give?
**A.** 80 % of control

**Q.** What about the T/C [1] of the same compound?
**A.** 70 % of control

**Q.** And the T/C [2]?
**A.** 68 % of control

**Q.** And the T/C [3]?
**A.** 83 % of control

**Q.** What about the T/C [4] of the same compound?
**A.** 40 % of control

**Q.** What does the source list for `O=C[C@@H](CO)O[C@H](C=O)n1cnc2c(=O)[nH]cnc21`?
**A.** T/C (endpoint: median tumor weight (est.), dose: 18.7 mg/kg/injection, schedule: Q07DX002 (ip), vehicle: saline, higher = larger tumour): 168 % of control; T/C (endpoint: median tumor weight (est.), dose: 37.5 mg/kg/injection, schedule: Q07DX002 (ip), vehicle: saline, higher = larger tumour): 105 % of control; T/C (endpoint: median tumor weight (est.), dose: 75.0 mg/kg/injection, schedule: Q07DX002 (ip), vehicle: saline, higher = larger tumour): 121 % of control; T/C (endpoint: median tumor weight (est.), dose: 150.0 mg/kg/injection, schedule: Q07DX002 (ip), vehicle: saline, higher = larger tumour): 100 % of control; T/C (endpoint: median tumor weight (est.), dose: 300.0 mg/kg/injection, schedule: Q07DX002 (ip), vehicle: saline, higher = larger tumour): 120 % of control; T/C (endpoint: median tumor weight (est.), dose: 600.0 mg/kg/injection, schedule: Q07DX002 (ip), vehicle: saline, higher = larger tumour): 86 % of control

**Q.** Which results are given for `CCCC(=O)OCc1cc(=O)n(C)c2c3c4c(cc12)c(C)cc(=O)n4CO3`?
**A.** T/C (endpoint: median tumor weight (est.), dose: 6.25 mg/kg/injection, schedule: Q07DX002 (ip), vehicle: Klucel (hydroxypropylcellulose) (HPC), higher = larger tumour): 99 % of control; T/C (endpoint: median tumor weight (est.), dose: 12.5 mg/kg/injection, schedule: Q07DX002 (ip), vehicle: Klucel (hydroxypropylcellulose) (HPC), higher = larger tumour): 96 % of control; T/C (endpoint: median tumor weight (est.), dose: 25.0 mg/kg/injection, schedule: Q07DX002 (ip), vehicle: Klucel (hydroxypropylcellulose) (HPC), higher = larger tumour): 162 % of control; T/C [5]: 150 % of control; T/C [6]: 64 % of control

**Q.** `CC1C=NNC1=O` (stereo unspecified) was tested. Which T/C [5] did it give?
**A.** 84 % of control

**Q.** And the T/C [6]?
**A.** 91 % of control and 96 % of control

**Q.** And the T/C (endpoint: median tumor weight (est.), dose: 200.0 mg/kg/injection, schedule: Q07DX002 (ip), vehicle: Klucel (hydroxypropylcellulose) (HPC), higher = larger tumour)?
**A.** 97 % of control and 98 % of control

**Q.** What about the T/C (endpoint: median tumor weight (est.), dose: 400.0 mg/kg/injection, schedule: Q07DX002 (ip), vehicle: Klucel (hydroxypropylcellulose) (HPC), higher = larger tumour) of the same compound?
**A.** 76 % of control

**Q.** What does the source list for `CC(=O)OCC1OC(n2ccc(N)nc2=O)C(OC(C)=O)C1OC(C)=O` (stereo unspecified)?
**A.** T/C (endpoint: median tumor weight (est.), dose: 25.0 mg/kg/injection, schedule: Q07DX002 (ip), vehicle: saline, higher = larger tumour): 113 % of control and 92 % of control; T/C (endpoint: median tumor weight (est.), dose: 50.0 mg/kg/injection, schedule: Q07DX002 (ip), vehicle: saline, higher = larger tumour): 97 % of control and 104 % of control; T/C (endpoint: median tumor weight (est.), dose: 800.0 mg/kg/injection, schedule: Q07DX002 (ip), vehicle: saline, higher = larger tumour): 30 % of control and 36 % of control
